We go through one substance from US20260232710A1, “AGENTS, COMPOSITIONS, AND METHODS FOR SUPPORTING BEHAVIOURAL DEVELOPMENT” (SOCIÉTÉ DES PRODUITS NESTLÉ S.A., priority 2023, published 2026).

The assay relates to human breast milk-fed infants. As to the kind of experiment: Regression association of breast milk HMO levels with IBQ-R negative affectivity in infants. Type of assay: in vivo. How it is done:
In some embodiments, social-emotional skills are determined by an Infant Behavior Questionnaire (IBQ), such as the IBQ-Revised (IBQ-R). The “IBQ-R (revised Infant Behavior Questionnaire) questionnaire” is a widely used parent-report measure for assessing dimensions of temperament along 14 scales, as reported below, in infants between 3 and 12 months of age (see e.g. Gartstein, M. A. and Rothbart, M. K., 2003. Infant behavior and development, 26(1), pp. 64-86).
The subject's negative affectivity can be determined by any suitable method. In some embodiments, the subject's negative affectivity is determined by an Infant Behavior Questionnaire (IBQ), for example the IBQ-Revised (IBQ-R). For example, negative affectivity may be a domain constructed out of the following scales on the IBQ-R: sadness, fear, distress to limitations, activity level, and falling reactivity. The one or more HMOs according to the present invention may reduce sadness, fear, and/or distress to limitations. The one or more HMOs according to the present invention may improve activity level and/or rate of recovery from distress.
A total of 195 infants were tested. Breastmilk HMO levels were tested in breastmilk collected at two months and three months. Infant behaviours were assessed with an Infant Behaviour Questionnaire-Revised (IBQ-R). […]

As to Lacto-N-difucohexaose I [LNDFHI], under “breast milk collected at 2 months, negative affectivity of infants at 9 months, N=195”, the IBQR entry is “Reduced”. In addition, where the note is “infants at 9 months, breast milk HMO levels”, the “association with negative emotions in infants” value was “associated with reduction in negative emotions”.
